Measured values reported in patent publication US4436751A, “Nitrobenzyl monates antibacterial compounds” (Beecham Group Limited, priority 1980, dated 1984).
≈ marks a conversion by molar mass, not a printed value. Like-named read-outs stand apart in the source and are kept apart here.

What was measured:
Format in all cases: cell-based
M. suipneumoniae OCD 1 = test: Anti-mycoplasmal MIC in vitro, Friis broth agarose (Table 1); settings: Mesomycoplasma hyopneumoniae, OCD1, 144 h
M. hyorhinis ATCC 23234 = test: as above; settings: Mesomycoplasma hyorhinis, ATCC23234, 144 h
[1] = test system: M. bovigenitalium ATOC 14173; test: as above; settings: 144 h
[2] = test system: M. suipneumoniae ATCC 25095; test: as above; settings: Mesomycoplasma hyopneumoniae, ATCC25095, 144 h
M. gallisepticum S6 = test: as above; settings: Mycoplasmoides gallisepticum
M. suipneumoniae LABER = test: as above; settings: Mesomycoplasma hyopneumoniae, 144 h
M. bovis RCTC 10131 = test: microbe, parasite or virus in culture; settings: RCTC10131, 144 h
M. suipneumoniae Str. 11 = test: Anti-mycoplasmal MIC in vitro, Friis broth agarose (Table 1); settings: Mesomycoplasma hyopneumoniae
[3] = test system: M. suipneumoniae PW/C/210; test: as above; settings: Mesomycoplasma hyopneumoniae, 144 h
E. Coli E1 = test: Veterinary bacteria MIC, Diagnostic Sensitivity Test Agar (Table 2); settings: Escherichia coli
Protocol: (§1) The values were determined using a two fold serial dilutions in Diagnostic Sensitivity Test Agar with an inoculum of 10^4 organisms and incubation for 18 hours at 37° C.

Strep. uberis SPO1 = test: as above; settings: Streptococcus uberis
Protocol: as §1

Strep. dylgalactiae SPD1 = test: as above
Protocol: as §1

Strep. agalactiae SPA1 = test: as above; settings: Streptococcus agalactiae
Protocol: as §1

Staph. aureus 152 = test: as above
Protocol: as §1

Past. haemolytica PA5 = test: as above; settings: Mannheimia haemolytica
Protocol: as §1

Staph. aureus Oxford = test: as above; settings: Staphylococcus aureus
Protocol: as §1

Bord. bronchiseptica BO8 = test: as above; settings: Bordetella bronchiseptica
Protocol: as §1

S. dublin S7 = test: as above; settings: Salmonella enterica
Protocol: as §1

Past. multocida PA1 = test: as above; settings: Pasteurella multocida
Protocol: as §1

[4] = test system: Corynebacterium pyogenes CY1; test: as above; settings: Trueperella pyogenes
Protocol: as §1

Bord. bronchiseptica BO9 = test: as above; settings: Bordetella bronchiseptica
Protocol: as §1

[5] = test system: Erysipelothrix rhusiopathiae NCTC 8163; test: as above
Protocol: as §1

[6] = test system: Strep. suis (group D) SPS11; test: as above; settings: Streptococcus suis
Protocol: as §1

E. Coli NCTC 10418 = test: as above; settings: Escherichia coli
Protocol: as §1

S. typhimurium S18 = test: as above; settings: Salmonella enterica
Protocol: as §1

Past. multocida PA2 = test: as above; settings: Pasteurella multocida
Protocol: as §1

Staph. aureus B4 = test: as above; settings: Staphylococcus aureus
Protocol: as §1

M. suipneumoniae MS 16 = test: Anti-mycoplasmal MIC in vitro, Friis broth agarose (Table 1); settings: Mesomycoplasma hyopneumoniae, MS16, 144 h
[7] = M. suipneumoniae OCD 1, in vitro, 6 days 37° C., read-out: MIC
[8] = M. hyorhinis ATCC 23234, in vitro, 6 days 37° C., read-out: MIC
[9] = 144 h, M. gallisepticum S6, in vitro, 6 days 37° C., read-out: MIC
[10] = M. suipneumoniae LABER, in vitro, 6 days 37° C., read-out: MIC
[11] = 144 h, M. suipneumoniae Str. 11, in vitro, 6 days 37° C., read-out: MIC
[12] = M. suipneumoniae PW/C/210, in vitro, 6 days 37° C., read-out: MIC
[13] = E. Coli E1, DST Agar, 10^4 organisms, 18 hours 37° C., read-out: MIC
[14] = Strep. uberis SPO1, DST Agar, 10^4 organisms, 18 hours 37° C., read-out: MIC
[15] = Strep. dylgalactiae SPD1, DST Agar, 10^4 organisms, 18 hours 37° C., read-out: MIC
[16] = Strep. agalactiae SPA1, DST Agar, 10^4 organisms, 18 hours 37° C., read-out: MIC
[17] = Staphylococcus aureus, Staph. aureus 152, DST Agar, 10^4 organisms, 18 hours 37° C., read-out: MIC
[18] = Past. haemolytica PA5, DST Agar, 10^4 organisms, 18 hours 37° C., read-out: MIC
[19] = Staph. aureus Oxford, DST Agar, 10^4 organisms, 18 hours 37° C., read-out: MIC
[20] = Bord. bronchiseptica BO8, DST Agar, 10^4 organisms, 18 hours 37° C., read-out: MIC
[21] = S. dublin S7, DST Agar, 10^4 organisms, 18 hours 37° C., read-out: MIC
[22] = Past. multocida PA1, DST Agar, 10^4 organisms, 18 hours 37° C., read-out: MIC
[23] = Corynebacterium pyogenes CY1, DST Agar, 10^4 organisms, 18 hours 37° C., read-out: MIC
[24] = Bord. bronchiseptica BO9, DST Agar, 10^4 organisms, 18 hours 37° C., read-out: MIC
[25] = NCTC8163, Erysipelothrix rhusiopathiae NCTC 8163, DST Agar, 10^4 organisms, 18 hours 37° C., read-out: MIC
[26] = Strep. suis (group D) SPS11, DST Agar, 10^4 organisms, 18 hours 37° C., read-out: MIC
[27] = NCTC10418, E. Coli NCTC 10418, DST Agar, 10^4 organisms, 18 hours 37° C., read-out: MIC
[28] = S. typhimurium S18, DST Agar, 10^4 organisms, 18 hours 37° C., read-out: MIC
[29] = Past. multocida PA2, DST Agar, 10^4 organisms, 18 hours 37° C., read-out: MIC
[30] = Staph. aureus B4, DST Agar, 10^4 organisms, 18 hours 37° C., read-out: MIC
[31] = M. suipneumoniae MS 16, in vitro, 6 days 37° C., read-out: MIC

Work on `C/C(=C\C(=O)OC(C)c1cccc([N+](=O)[O-])c1)CC1OCC(CC2OC2C(C)C(C)O)C(O)C1O` (stereo not drawn) [Example 3, 1-(m-nitrophenyl)ethyl monate A] yielded an MIC (M. suipneumoniae OCD 1; [7]) of 0.25 µg/mL (≈ 0.507 µM), an MIC (M. hyorhinis ATCC 23234; [8]) of 0.1 µg/mL (≈ 0.203 µM) and an MIC [1] of 0.05 µg/mL (≈ 0.101 µM). For the same compound, the MIC ([2]; M. suipneumoniae ATCC 25095, in vitro, 6 days 37° C., read-out: MIC) was 0.1 µg/mL (≈ 0.203 µM), the MIC (M. gallisepticum S6; [9]) was > 10 µg/mL and the MIC (M. suipneumoniae LABER; [10]) was 0.1 µg/mL (≈ 0.203 µM). For the same compound, the MIC (M. bovis RCTC 10131) was 0.025 µg/mL (≈ 0.0507 µM), the MIC (M. suipneumoniae Str. 11; [11]) was 0.1 µg/mL (≈ 0.203 µM) and the MIC [3, 12] was 0.1 µg/mL (≈ 0.203 µM). For the same compound, the MIC (E. Coli E1; [13]) was > 80 µg/mL, the MIC (Strep. uberis SPO1; [14]) was 0.312 µg/mL (≈ 0.632 µM) and the MIC (Strep. dylgalactiae SPD1; [15]) was 1.25 µg/mL (≈ 2.53 µM). For the same compound, the MIC (Strep. agalactiae SPA1; [16]) was 2.5 µg/mL (≈ 5.07 µM), the MIC (Staph. aureus 152; [17]) was 2.5 µg/mL (≈ 5.07 µM) and the MIC (Past. haemolytica PA5; [18]) was 40 µg/mL (≈ 81 µM). The MIC (Staph. aureus Oxford; [19]) was 2.5 µg/mL (≈ 5.07 µM), the MIC (Bord. bronchiseptica BO8; [20]) was > 80 µg/mL and the MIC (S. dublin S7; [21]) was > 80 µg/mL. For the same compound, the MIC (Past. multocida PA1; [22]) was 20 µg/mL (≈ 40.5 µM), the MIC [4, 23] was > 80 µg/mL and the MIC (Bord. bronchiseptica BO9; [24]) was 80 µg/mL (≈ 162 µM). For the same compound, the MIC [5, 25] was 80 µg/mL (≈ 162 µM), the MIC [6, 26] was 40 µg/mL (≈ 81 µM) and the MIC (E. Coli NCTC 10418; [27]) was > 80 µg/mL. The MIC (S. typhimurium S18; [28]) was > 80 µg/mL, the MIC (Past. multocida PA2; [29]) was 2.5 µg/mL (≈ 5.07 µM) and the MIC (Staph. aureus B4; [30]) was 2.5 µg/mL (≈ 5.07 µM). For the same compound, the MIC (M. suipneumoniae MS 16; [31]) was 0.1 µg/mL (≈ 0.203 µM).

`C/C(=C\C(=O)OCc1cc([N+](=O)[O-])cc([N+](=O)[O-])c1C)CC1OCC(CC2OC2C(C)C(C)O)C(O)C1O` (stereo not drawn) [Example 7, 3,5-dinitro-2-methylbenzyl monate A] was tested, and the MIC (M. suipneumoniae OCD 1) was 0.25 µg/mL (≈ 0.464 µM), the MIC (M. hyorhinis ATCC 23234) was 0.1 µg/mL (≈ 0.186 µM) and the MIC [1] was ≤ 0.1 µg/mL. For the same compound, the MIC [2] was 0.25 µg/mL (≈ 0.464 µM), the MIC (M. gallisepticum S6; S6, 144 h) was 2.5 µg/mL (≈ 4.64 µM) and the MIC (M. suipneumoniae LABER) was 0.1 µg/mL (≈ 0.186 µM). The MIC (M. bovis RCTC 10131) was ≤ 0.1 µg/mL, the MIC (M. suipneumoniae Str. 11; STR.11, 144 h) was 0.1 µg/mL (≈ 0.186 µM) and the MIC [3] was 0.1 µg/mL (≈ 0.186 µM). The MIC (E. Coli E1; 18 h) was > 80 µg/mL, the MIC (Strep. uberis SPO1; SPO1, 18 h) was 0.156 µg/mL (≈ 0.29 µM) and the MIC (Strep. dylgalactiae SPD1; 18 h) was 0.625 µg/mL (≈ 1.16 µM). For the same compound, the MIC (Strep. agalactiae SPA1; SPA1, 18 h) was 0.625 µg/mL (≈ 1.16 µM), the MIC (Staph. aureus 152; Staphylococcus aureus, 152, 18 h) was 0.625 µg/mL (≈ 1.16 µM) and the MIC (Past. haemolytica PA5; PA5, 18 h) was 5 µg/mL (≈ 9.28 µM). For the same compound, the MIC (Staph. aureus Oxford; 18 h) was 0.625 µg/mL (≈ 1.16 µM), the MIC (Bord. bronchiseptica BO8; BO8, 18 h) was 40 µg/mL (≈ 74.3 µM) and the MIC (S. dublin S7; S7, 18 h) was > 80 µg/mL. The MIC (Past. multocida PA1; PA1, 18 h) was 2.5 µg/mL (≈ 4.64 µM), the MIC ([4]; CY1, 18 h) was > 80 µg/mL and the MIC (Bord. bronchiseptica BO9; BO9, 18 h) was 10 µg/mL (≈ 18.6 µM). For the same compound, the MIC ([5]; Erysipelothrix rhusiopathiae, NCTC8163, 18 h) was 10 µg/mL (≈ 18.6 µM), the MIC ([6]; 18 h) was 10 µg/mL (≈ 18.6 µM) and the MIC (E. Coli NCTC 10418; NCTC10418, 18 h) was > 80 µg/mL. The MIC (S. typhimurium S18; TYPHIMURIUM, 18 h) was > 80 µg/mL, the MIC (Past. multocida PA2; PA2, 18 h) was 1.25 µg/mL (≈ 2.32 µM) and the MIC (Staph. aureus B4; B4, 18 h) was 0.625 µg/mL (≈ 1.16 µM). It also gave an MIC (M. suipneumoniae MS 16) of 0.1 µg/mL (≈ 0.186 µM).

`C/C(=C\C(=O)OCc1cccc([N+](=O)[O-])c1)CC1OCC(CC2OC2C(C)C(C)O)C(O)C1O` (stereo not drawn) [Example 2, m-nitrobenzyl monate A] was tested, and the MIC (M. suipneumoniae OCD 1; [7]) was 0.025 µg/mL (≈ 0.0521 µM), the MIC (M. hyorhinis ATCC 23234; [8]) was ≤ 0.01 µg/mL and the MIC ([1]; M. bovigenitalium ATOC 14173, in vitro, 6 days 37° C., read-out: MIC) was ≤ 0.01 µg/mL. It also gave an MIC [2] of 0.025 µg/mL (≈ 0.0521 µM), an MIC (M. gallisepticum S6; [9]) of 2.5 µg/mL (≈ 5.21 µM) and an MIC (M. suipneumoniae LABER; [10]) of 0.025 µg/mL (≈ 0.0521 µM). For the same compound, the MIC (M. bovis RCTC 10131) was ≤ 0.01 µg/mL, the MIC (M. suipneumoniae Str. 11; [11]) was 0.025 µg/mL (≈ 0.0521 µM) and the MIC [3, 12] was ≤ 0.01 µg/mL. For the same compound, the MIC (E. Coli E1; [13]) was 40 µg/mL (≈ 83.4 µM), the MIC (Strep. uberis SPO1; [14]) was 0.07 µg/mL (≈ 0.146 µM) and the MIC (Strep. dylgalactiae SPD1; [15]) was 0.312 µg/mL (≈ 0.651 µM). It also gave an MIC (Strep. agalactiae SPA1; [16]) of 0.625 µg/mL (≈ 1.3 µM), an MIC (Staph. aureus 152; [17]) of 0.625 µg/mL (≈ 1.3 µM) and an MIC (Past. haemolytica PA5; [18]) of 5 µg/mL (≈ 10.4 µM). For the same compound, the MIC (Staph. aureus Oxford; [19]) was 0.625 µg/mL (≈ 1.3 µM), the MIC (Bord. bronchiseptica BO8; [20]) was 20 µg/mL (≈ 41.7 µM) and the MIC (S. dublin S7; [21]) was 80 µg/mL (≈ 167 µM). The MIC (Past. multocida PA1; [22]) was 0.615 µg/mL (≈ 1.28 µM), the MIC [4, 23] was > 80 µg/mL and the MIC (Bord. bronchiseptica BO9; [24]) was 5 µg/mL (≈ 10.4 µM). The MIC [5, 25] was 20 µg/mL (≈ 41.7 µM), the MIC [6, 26] was 5 µg/mL (≈ 10.4 µM) and the MIC (E. Coli NCTC 10418; [27]) was 40 µg/mL (≈ 83.4 µM). The MIC (S. typhimurium S18; [28]) was 40 µg/mL (≈ 83.4 µM), the MIC (Past. multocida PA2; [29]) was 0.312 µg/mL (≈ 0.651 µM) and the MIC (Staph. aureus B4; [30]) was 0.625 µg/mL (≈ 1.3 µM). For the same compound, the MIC (M. suipneumoniae MS 16; [31]) was ≤ 0.01 µg/mL.
